The values below come from patent publication US12372525B2 (priority 2013, dated 2025).

For experiment [1], the system named is A/Texas/12/2007 (H3N2) E119V. The following applies: Oselt resistance strain; cited from earlier work.
The subject of experiment [2] is A/Mississippi/03/2001 A(H1N1) H275Y neuraminidase. The following applies: stated character of the test strain; cited from earlier work.
The subject of a further experiment is influenza virus. The following applies: cited from earlier work.
In experiment [3] the test system is A/Massachusetts/5/2007 (H1N1) H274Y. The following applies: Oselt resistance strain; cited from earlier work.
Experiment [4] relates to A/Georgia/20/2006 (H1N1) H274Y. The following applies: Oselt resistance strain; cited from earlier work.
Experiment [5] concerns B/Hong Kong/36/2005 B) R371K. The following applies: Oselt + Zana resistance strain; cited from earlier work.
The test system of experiment [6] is A/Washington/29/2009(H1N1pdm) H275Y. The following applies: Oselt resistance strain; cited from earlier work.
The test system of experiment [7] is A/Mississippi/03/2001 A(H1N1) H275Y neuraminidase. The experiment is classed as biochemical, Influenza A.
For experiment [8], the system named is A/Montana/8/2007 (H3N2) D151V/D. The following applies: Zana resistance strain; cited from earlier work.

pIC50: −log10 of the molar value. “Also recorded” adds a separate entry of the source.

In the case of `CCOC(=O)C1=C[C@@H](OC(CC)CC)[C@H](NC(C)=O)[C@@H](N)C1` [Oseltamivir], the pIC50 (usually the negative decadic logarithm of the IC50, by convention in mol/L) in [1] was 8.04; in experiment [3], 6.59; in [4], 6.42; in [5], 5.75; in experiment [6] it was 5.84. The “known sensitivity of the test strain neuraminidase to the drug” value in [2] is listed as “resistant”. For the same compound, the “decrease in susceptibility of isolated virus variants” value in the experiment on influenza virus is on record as over 10 fold.

As to `CC(=O)N[C@H]1[C@H]([C@H](O)[C@H](O)CO)OC(C(=O)O)=C[C@@H]1N=C(N)N` [Zanamivir], in experiment [2], the “known sensitivity of the test strain neuraminidase to the drug” value is “sensitive”. For the same compound, in experiment [7], the “relative sensitivity of test strain in dual enzyme assay” value was “more sensitive to Zanamivir than Oseltamivir; also recorded: Relenza outperforms Tamiflu”. The figures for the pIC50 in experiment [8] and in experiment [5] were 6.72 and 6.81, respectively.
